Test results as given in patent US20020022022A1, “Inhibition of cell proliferation and matrix synthesis by antioxidants and NAD(P)H oxidase inhibitors” (priority 2000, published 2002).
Entries after “also recorded” stand apart in the source; their conditions may differ. Like-named read-outs stand apart in the source and are kept apart here.

B1: CAT: catalase; removal of H2O2 (protein, UniProt P00432 2-527, looked up)
Catalase: ADNRDPASDQMKHWKEQRAAQKPDVLTTGGGNPVGDKLNSLTVGPRGPLLVQDVVFTDEMAHFDRERIPERVVHAKGAGAFGYFEVTHDITRYSKAKVFEHIGKRTPIAVRFSTVAGESGSADTVRDPRGFAVKFYTEDGNWDLVGNNTPIFFIRDALLFPSFIHSQKRNPQTHLKDPDMVWDFWSLRPESLHQVSFLFSDRGIPDGHRHMNGYGSHTFKLVNANGEAVYCKFHYKTDQGIKNLSVEDAARLAHEDPDYGLRDLFNAIATGNYPSWTLYIQVMTFSEAEIFPFNPFDLTKVWPHGDYPLIPVGKLVLNRNPVNYFAEVEQLAFDPSNMPPGIEPSPDKMLQGRLFAYPDTHRHRLGPNYLQIPVNCPYRARVANYQRDGPMCMMDNQGGAPNYYPNSFSAPEHQPSALEHRTHFSGDVQRFNSANDDNVTQVRTFYLKVLNEEQRKRLCENIAGHLKDAQLFIQKKAVKNFSDVHPEYGSRIQALLDKYNEEKPKNAVHTYVQHGSHLSAREKANL

Experiments:
adventitial fibroblasts = test: Cell proliferation assay, serum-stimulated adventitial fibroblasts (cell counting); format: cell-based, porcine; details: for effect on fibroblast growth (cell counting): 10% FBS, 3 days after treatment, concentration-dependent; for effect on serum-induced growth of vascular cells in vitro: serum-stimulated isolated vascular cells (fibroblasts and SMC, FIGS. 7A and 7B)
Experimental: (§1) Fibroblasts are isolated from the adventitia of porcine coronary arteries as described. (26) The cells (passage 2-6) are plated in triplicates at 10,000 cells/well in 24-well plates in DMEM supplemented with 10% FBS. At 24 hours later, cells are arrested in DMEM containing 0.5% FBS for 48 hours. Afterwards, they are stimulated with 10% FBS for 3 days with or without addition of indicated inhibitors. Cells are trypsinized at 72 hours after stimulation and counted in a Coulter counter. Values are derived from 3 wells/treatment and the experiments are repeated at least three times on separate occasions.

vascular SMC = test: Vascular SMC proliferation, serum-stimulated (cell counting); format: cell-based; details: 10% FBS, 3 days after treatment; concentration-dependent
Experimental: FIG. 7B. ROS and vascular SMC proliferation. SMC (10,000 cells/well) are arrested with 0.5% FBS for 48 hours and then stimulated with 10% FBS in the presence or absence of various inhibitors. Cell growth is examined at 3 days after treatment by cell counting. […] The experiments are repeated 3 times yielding similar results.
as §1

[1] = tested on: —O2^− generation in coronary adventitial fibroblasts; test: Serum-induced —O2^− generation in coronary adventitial fibroblasts (NBT to formazan); format: cell-based, porcine
Experimental: —O2^− production in isolated adventitial fibroblasts: Adventitial fibroblasts (passage 2-6) are plated in 6-well plates at 100,000 cells/well in 10% FBS. Two (2) days later, when cells are ˜80% confluent, they are arrested in 0.5% FBS for the next 48 hours. Afterwards, they are stimulated with 10% FBS for 1-24 hours, followed by incubation with NBT (0.5 mg/ml in phenol-free DMEM) for one hour. After a brief washing, cells are trypsinized, and cell pellets are dissolved in 100% pyridine. The light absorbance is measured at 540 nm, and the NBT reduction to formazan is calculated as described above and corrected by cell number. Values are derived from 6-9 wells from three separate experiments.

[2] = tested on: superoxide generation in injured coronary arteries; test: Superoxide generation in injured coronary arteries (SOD-inhibitable NBT reduction); format: cell-based, pigs; details: for Superoxide generation (SOD-inhibitable NBT reduction): rings pretreated 30 minutes, DPI 100 μM or L-NAME 1 mM; for effect on superoxide generation after coronary injury: injured coronary arteries, DPI 100 μM, L-NAME 1 mM
From the text: Domestic crossbred female pigs (12-15 kg) are anesthetized and instrumented, as previously described. (22,23) After the exposure of the right common carotid artery, heparin (5,000 U) is intravenously administered. […] The third artery is used as a control. The animals are euthanatized with intravenous […] Laboratory) at the times indicated in the text. […] Coronary arteries are dissected free from adipose tissue and myocardium and then cut into 5 mm rings and placed in 24-well plates. […] The reaction is terminated by addition of equal volume of 0.5N HCl, and tissues are rinsed twice with cold PBS. To extract formazan, tissues are pulverized in liquid nitrogen and dissolved in 100% pyridine at 80° C. for 30 minutes. After centrifugation, light absorbance is read in supernatants at 540 nm. The NBT reduction to formazan is calculated using the following formula: NBT reduction=[…]: absorbance; V: volume of solubilizing solution; T: time of incubation with NBT (minutes); […] L: length of light travel through the solution, 10 mm).

[3] = tested on: superoxide anion (—O2^−) generation in coronary adventitia; test: —O2^− production in uninjured coronary adventitia (SOD-inhibitable NBT reduction); format: cell-based, pigs; details: uninjured coronary rings pre-incubated with inhibitor; DPI 100 μM, ROT 50 μM, OXY 300 μM
Experimental: The production of —O2^− is measured by superoxide dismutase- (SOD) or tiron-inhibitable conversion of nitroblue tetrazolium (NBT) to formazan. (20,21)
—O2^− production in coronary arteries: Coronary arteries are dissected free from adipose tissue and myocardium and then cut into ˜5 mm rings and placed in 24-well plates. Tissues are balanced in phenol-free DMEM at 37° C. in a CO2 incubator for 30 minutes with or without addition of SOD (SOD, 1000 unit/ml) or tiron (10 mM), both scavengers of —O2^− Freshly made NBT (100 mg/L in phenol-free DMEM) is added to the tissues with a gentle rocking for 3 hours. The reaction is terminated by addition of equal volume of 0.5N HCl, and tissues are rinsed twice with cold PBS. To extract formazan, tissues are pulverized in liquid nitrogen and dissolved in 100% pyridine at 80° C. for 30 minutes. After centrifugation, light absorbance is read in supernatants at 540 nm. The NBT reduction to formazan is calculated using the following formula: NBT reduction=A×V/(T×E×L) (A: absorbance; V: volume of solubilizing solution; T: time of incubation with NBT (minutes); E: extinction coefficient=0.72 mmol.mm; L: length of light travel through the solution, 10 mm). Either SOD- or tiron-inhibitable NBT reduction is calculated as measures of —O2^− production (pmol/min/mg wet weight). To determine the pathways mediating —O2^− production, several inhibitors are used in the experiments, including diphenyleneiodonium (DPI, 100 μM), rotenone (ROT, 50 μM), oxypurinol (OXY, 300 μM), N^ω-nitro-L-arginine methyl ester (L-NAME, 1 mM), and diethyldithio-carbamic acid (DETCA, 10 mM). The n value represents the number of vascular rings obtained from at least 3 animals per experimental condition.

[4] = tested on: superoxide anion (—O2^−) in SVG; test: Superoxide anion in saphenous vein grafts (SOD-inhibitable NBT reduction); format: cell-based, pigs; details: SVG 2 weeks after surgery, DPI 100 μM; for effect on superoxide anion in SVG (SOD-inhibitable NBT reduction): L-NAME 1 mM
Experimental: A porcine model of a graft interposition in the common carotid artery is used as described. (49) Domestic crossbred pigs (n=22) weighing 35-50 kg are sedated with Telazol (3-5 mg/kg) and atropine (0.01 mg/kg) i.m. Anesthesia is maintained with Propofol, i.v. (15 mg/kg/hr). The animals are ventilated with 100% oxygen. Saphenous veins are harvested without distension and incubated for 30 minutes in saline containing nitroglycerine (0.5 mg/ml). Both carotid arteries are dissected free and heparin (150 U/kg) is administered i.v. A ˜2 cm section of the carotid artery is excised and reversed vein interposition grafting is performed. The excised carotid artery then is grafted into the contralateral carotid artery. Postoperative analgesia is provided with Buprenex (0.015 mg/kg) i.m. The animals are given aspirin 650 mg/day p.o. At the times indicated, animals are euthanized with Euthasol (80 mg/kg) i.v. and vascular tissues harvested.
Superoxide anion (—O2^−) production is measured by SOD-inhibitable conversion of NTB to formazan. (20,21) Normal saphenous veins, arteries, SVG, and AG are harvested at 2 weeks after surgery. After the removal of adventitia and endothelium, tissues are cut into ˜5 mm strips, placed in a 24-well plate, and balanced in pheno-free DMEM at 37° C. in CO2 for 30 minutes. Freshly made NBT (0.1 mg/ml in pheno-free DMEM) is added for 3 hours with or without addition of SOD (1000 U/ml). The reaction is terminated by 0.5N HCl and rinsing twice with cold PBS. To extract formazan, tissues are pulverized in liquid nitrogen, dissolved in 100% pyridine at 80° C. for 30 minutes, and centrifuged. Supernatants are read at 540 nm and NBT reduction is calculated as follows: NBT reduction=A×V/(T×E×L) (A: absorbance; V: volume of solubilizing solution; T: time of incubation with NBT (minutes); E: extinction coefficient=0.72 mmol.mm; L: length of light travel through the solution (10 mm).) The SOD-inhibitable NBT reduction is calculated as a measure of —O2^− (pmol/mg wet weight/min). In separate experiments, the inhibitors of oxidative enzymes are used, inlcuding diphenyleneiodonium (DPI, 100 μM) rotenone (ROT, 50 μμM), oxypurinol (OXY, 300 μμM) and N^ω-nitro-L-arginine methyl ester (L-NAME, 1 mM), to determine the origin of —O2^− in vascular grafts.

[5] = pretreated 30 minutes, 10% FBS for 3 hours, DPI 10 μM, SOD 500 U/ml

Molecule | effect on fibroblast growth (cell counting) (adventitial fibroblasts) | effect on serum-induced growth of vascular cells in vitro (adventitial fibroblasts) | effect on SMC growth (cell counting) (vascular SMC) | effect on —O2^− generation in coronary adventitia (SOD-inhibitable NBT reduction) [3] | effect on superoxide anion in SVG (SOD-inhibitable NBT reduction) [4] | effect on serum-induced —O2^− production [1, 5] | other results
O=S(=O)(O)c1cc(O)c(O)c(S(=O)(=O)O)c1 [tiron] | significantly inhibits | inhibits; also recorded: abrogates | significantly inhibits |  |  |  | 
c1ccc2c(c1)[I+]c1ccccc1-2 [DPI, diphenyleneiodonium] | significantly inhibits | significantly inhibits; also recorded: abrogates | significantly inhibits | inhibits; also recorded: abolishes | significantly reduced |  | effect on serum-induced —O2^− production [1]: significant inhibition; also recorded: significant reduction; Superoxide generation (SOD-inhibitable NBT reduction) ([2]; 2 days after injury): 0.5 ± 0.9 pmol/mg/min; Superoxide generation (SOD-inhibitable NBT reduction) ([2]; 10 days after injury): 0.2 ± 0.3 pmol/mg/min; effect on superoxide generation after coronary injury [2]: almost entirely abolishes; reduction of —O2^− in SVG [4]: > 95%
SOD: superoxide dismutase, exogenous enzyme; dismutation of —O2^− to H2O2 | no significant inhibition | does not prevent; also recorded: ineffective | no significant inhibition |  |  | significant inhibition; also recorded: significant reduction | 
COC(=O)[C@@H](N)CCCNC(=N)N[N+](=O)[O-] [L-NAME, N^ω-nitro-L-arginine methyl ester] |  | no significant effects |  |  | no effects; also recorded: do not decrease | no effects | Superoxide generation (SOD-inhibitable NBT reduction) ([2]; 2 days after injury): 12.9 ± 9.4 pmol/mg/min; Superoxide generation (SOD-inhibitable NBT reduction) ([2]; 10 days after injury): 11.5 ± 6.1 pmol/mg/min; effect on superoxide generation after coronary injury [2]: shows no effect
COc1cc(C(C)=O)ccc1O [apocynin, 4-hydroxy-3-methoxyacetopoenone] |  |  | significantly inhibits |  |  |  | 
CC(=O)N[C@@H](CS)C(=O)O [NAC, N-acetylcysteine] |  |  | significantly inhibits |  |  |  | 
O=c1[nH]c(=O)c2c[nH]nc2[nH]1 [OXY, oxypurinol] |  | no significant effects |  | no inhibitory effects; also recorded: no effect | do not decrease | no effects | effect on superoxide anion in SVG (SOD-inhibitable NBT reduction) ([4]; listed as oxypurinol): no effects
C=C(C)[C@H]1Cc2c(ccc3c2O[C@@H]2COc4cc(OC)c(OC)cc4[C@@H]2C3=O)O1 [ROT, rotenone] |  |  |  | no inhibitory effects; also recorded: no effect | do not decrease | no effects | effect on superoxide anion in SVG (SOD-inhibitable NBT reduction) ([4]; listed as rotenone): no effects
B1 | significantly inhibits | inhibits; also recorded: abrogates | significantly inhibits |  |  |  | 
